Measured values: patent EP4737445A1, “NOVEL SATURATED HETEROCYCLE-SUBSTITUTED HETEROARYL-CARBONOHYDRAZONOYL DICYANIDE COMPOUND AND USE THEREOF” (Korea Institute of Science and Technology, priority 2023, dated 2025)

Experiments:
Type in all cases: in vivo
[1] = tested on: TauP301L-BiFC Tg mice; assay: Novel Objective Recognition test in tau transgenic mice; settings: oral 10 mg/kg, 5 times per week, 19 weeks, Vehicle = 0.48
Description: Compounds 6, 16, and 20 were orally administered to 8.2-month-old tau transgenic animal model (TauP301L-BiFC tg mouse) 5 times per week at a concentration of 10 mg/kg for a total of 19 weeks (n=10/group). WT mice of similar age to the vehicle-treated group of TauP301L-BiFC mice were used as a control group. Three types of behavioral experiments (Novel Objective Recognition test, Y-maze test, Balance beam test) were performed to confirm the improvement effects on cognitive function and motor function by drug administration, and these experiments and their results were as follows. • (1) Novel Objective Recognition test: To evaluate the object recognition memory ability of mice, two identical objects (Old-Old) were explored for 10 minutes in a 40 cm × 40 cm box. The next day, one object was replaced with a new object (Old-New) and exploration was performed again for 10 minutes, and then the time showing exploratory behavior toward the existing object and the new object was measured. Mice with normal object recognition ability (Recognition index) spent more time exploring the newly changed object, whereas mice with low object recognition ability could not distinguish the new object. The object recognition ability (Recognition index) values were as follows: (RI, Vehicle= 0.48, n.s., #20= 0.59, p<0.05, #6= 0.66, p<0.0001, #16= 0.58, p<0.05). In TauP301L-BiFC mice, the object recognition function improvement effect by drugs #20, #6, and #16 compared to the vehicle group was confirmed. • (2) Y-maze test: A Y-maze test was performed to evaluate the spatial working memory ability of mice. Whether the mice entered the three arms of the Y-maze by spontaneous alternation behavior for a certain period of time was measured through video recording. An increase in the spontaneous alternation ratio was considered as improved working memory ability. […] The time taken to cross a rod with a height of 50 cm and length of 80 cm and the number of times the feet went outside the rod during crossing were measured. […]

[2] = target: T1, tau (Homo sapiens, UniProt P10636, P618L); assay: Tau-BiFC fluorescence imaging of brain tissue (tau oligomer/aggregate formation); settings: TauP301L-BiFC mice; oral 10 mg/kg, 19 weeks; vehicle = 100%
T1 construct: BiFC fluorescent-protein fragments (two complementary halves); from tissue; host or cells: brain of TauP301L-BiFC transgenic mice
T1 sequence (P10636 1-441 isoform P10636-8 P301L): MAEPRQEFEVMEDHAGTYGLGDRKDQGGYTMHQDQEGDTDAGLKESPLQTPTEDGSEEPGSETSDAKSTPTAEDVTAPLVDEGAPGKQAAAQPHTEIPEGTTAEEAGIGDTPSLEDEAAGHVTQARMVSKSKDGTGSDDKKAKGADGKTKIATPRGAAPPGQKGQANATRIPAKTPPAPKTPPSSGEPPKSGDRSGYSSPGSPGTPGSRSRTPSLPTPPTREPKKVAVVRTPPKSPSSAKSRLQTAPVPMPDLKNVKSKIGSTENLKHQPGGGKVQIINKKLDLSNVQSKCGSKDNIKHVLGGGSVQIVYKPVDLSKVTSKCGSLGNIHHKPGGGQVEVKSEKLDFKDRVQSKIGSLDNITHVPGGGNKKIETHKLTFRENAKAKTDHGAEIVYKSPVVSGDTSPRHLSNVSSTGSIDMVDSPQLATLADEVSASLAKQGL
Description: (§1) After oral administration of Compounds 6, 16, and 20 and completion of behavioral experiments, 13.2-month-old TauP301L-BiFC mice were sacrificed to proceed with brain tissue extraction and [2] brain lysate separation and purification. • [1] First, brain tissue extraction, BiFC fluorescence imaging of brain tissue, and tau phosphorylation antibody immunofluorescence were performed through the following process. TauP301L-BiFC mice were perfused with 0.9% saline and fixed with PBS (pH 7.4) solution containing 4% paraformaldehyde. The brain was extracted and fixed in PBS containing 4% paraformaldehyde at 4°C for 48 to 72 hours. For cryoprotection, the brain was transferred to PBS containing 30% sucrose solution and stored at 4°C until it sank. For frozen sectioning, the brain was immersed in O.C.T (Tissue-TEK) and frozen, and then continuously cut using a brain tissue sectioner. Tissue sections with a thickness of 30 µm were stored in PBS containing 0.05% sodium azide at 4°C.
Brain tissue sections (n=10 per group) were placed on slides, stained with Sudan Black B solution (70% ethanol containing 0.05% Sudan Black B) for 10 minutes to reduce autofluorescence, washed 3 times with PBS containing 0.1% Triton X-100, and then washed with distilled water. For nuclear staining, brain tissue sections were stained with Hoechst (0.5 µg/mL) for 30 minutes. BiFC fluorescence (λex=460-490 nm and λem=500-550 nm) images were acquired using Axio Scan.Z1 (ZEISS). For quantitative analysis, the average BiFC-fluorescence intensity was measured in the somatosensory cortex (layer V) and hippocampus CA1, and the habenular region was used as a control region to reduce background fluorescence differences between brain samples. ImageJ software (NIH) was used to mark regions of interest and calculate fluorescence intensity values, and the data were expressed as the average fluorescence intensity and standard deviation of brain tissue images from 10 mice per group.
As a result of Tau-BiFC fluorescence imaging of four regions of total brain tissue (hippocampus (CA1), somatosensory cortex, cerebellum, brainstem), the degree of Tau-BiFC fluorescence appearing as tau aggregation early oligomer formation and aggregate formation was as follows: • (1) Hippocampus (CA1), vehicle = 100%, #20= 79%, p<0.05, #6= 80%, p<0.05, #16= 72%, p<0.001. • (2) Sensory cortex (SCTX), vehicle = 100%, #20= 72%, p<0.05, #6= 73%, p<0.05, #16= 66%, p<0.01. • (3) Cerebellum (CB), vehicle = 100%, #20= 64%, p<0.05, #6= 68%, ns, #16= 76%, n.s. • (4) Brain stem, vehicle = 100%, #20= 60%, p<0.05, #6= 62%, p<0.05, #16= 60%, p<0.05.

[3] = target: T1, tau; assay: AT8 (pS202/T205) phospho-tau immunofluorescence of brain tissue; settings: TauP301L-BiFC mice; oral 10 mg/kg, 19 weeks; vehicle = 100%
Description: as §1
To measure not only tau oligomer formation but also the degree of tau phosphorylation observed in the tau pathology process, immunofluorescence staining using a tau phosphorylation antibody was performed. For brain tissue immunofluorescence image analysis, brain tissue slices (n=10 per group) were stained with AT8 (pS202/T205) antibody (1:200), and the primary antibody was detected using Alexa Fluor 633-labeled anti-mouse secondary antibody (1:500). Fluorescence images (λex=620-640 nm and λem=650-700 nm) were acquired using Axio Scan.Z1 (ZEISS).
The AT8 fluorescence imaging results of a total of two brain tissue regions (hippocampus (CA1), somatosensory cortex) were as follows: • (1) Hippocampus (CA1), vehicle = 100%, #20= 72%, p<0.01, #6= 81%, p<0.05, #16= 76%, p<0.01. • (2) Sensory cortex (SCTX), vehicle = 100%, #20= 54%, p<0.0001, #6= 63%, p<0.001, #16= 57%, p<0.0001.

SMILES: CC1COCCN1c1nc2ccc(NN=C(C#N)C#N)cc2o1 (stereo not drawn) [Compound 16, (2-(3-methylmorpholino)benzo[d]oxazol-6-yl)carbonohydrazonoyl dicyanide]
- object recognition ability (Recognition index, RI) [1]: 0.58
- Tau-BiFC fluorescence, Brain stem [2]: 60%
- Tau-BiFC fluorescence, Cerebellum (CB) [2]: 76%
- Tau-BiFC fluorescence, Hippocampus (CA1) [2]: 72%
- Tau-BiFC fluorescence, Sensory cortex (SCTX) [2]: 66%
- AT8 fluorescence, Hippocampus (CA1) [3]: 76%
- AT8 fluorescence, Sensory cortex (SCTX) [3]: 57%

SMILES: N#CC(C#N)=NNc1ccc2nc(N3C4CCC3COC4)oc2c1 [Compound 20, (2-(3-oxa-8-azabicyclo[3.2.1]octan-8-yl)benzo[d]oxazol-6-yl)carbonohydrazonoyl dicyanide]
- object recognition ability (Recognition index, RI) [1]: 0.59
- Tau-BiFC fluorescence, Brain stem [2]: 60%
- Tau-BiFC fluorescence, Cerebellum (CB) [2]: 64%
- Tau-BiFC fluorescence, Hippocampus (CA1) [2]: 79%
- Tau-BiFC fluorescence, Sensory cortex (SCTX) [2]: 72%
- AT8 fluorescence, Hippocampus (CA1) [3]: 72%
- AT8 fluorescence, Sensory cortex (SCTX) [3]: 54%

SMILES: Cn1c(N2CCOCC2)nc2cc(NN=C(C#N)C#N)ccc21 [Compound 6, (1-methyl-2-morpholino-1H-benzo[d]imidazol-5-yl)carbonohydrazonoyl dicyanide]
- object recognition ability (Recognition index, RI) [1]: 0.66
- Tau-BiFC fluorescence, Brain stem [2]: 62%
- Tau-BiFC fluorescence, Cerebellum (CB) [2]: 68%
- Tau-BiFC fluorescence, Hippocampus (CA1) [2]: 80%
- Tau-BiFC fluorescence, Sensory cortex (SCTX) [2]: 73%
- AT8 fluorescence, Hippocampus (CA1) [3]: 81%
- AT8 fluorescence, Sensory cortex (SCTX) [3]: 63%
